In patent US9783785B2, “Screening methods for detection of susceptibility to leukemia and lymphomas” (priority 2010, dated 2017):

Experiments:
[1] = tested on: mononuclear cells from "normal"/sickle cell patients (controls); test: cell surface phenotyping by flow cytometry, control cells; format: cell-based, human; details: compared to media only, days 1-4
Procedure: (§1) Subject to parental/patient consent, approximately 15 ml of blood was obtained from leukemic patients in remission, long-term survivors of acute lymphoblastic leukemia and normal volunteers. Additional “normal” control samples were collected from the first drawing of blood in sickle cell patients undergoing manual partial exchange transfusion, or samples of blood discarded by the blood bank from normal donors. Patient blood was placed into heparin (1000 USP u/ml). Peripheral blood mononuclear cells (PBMC) were isolated by density gradient centrifugation (400×g, 40 minutes, and 18° C.) with Ficoll Paque Plus (GE Healthcare, Amersham Biosciences; Uppsala, Sweden), followed by washing with phosphate-buffered saline. Plasma was also collected simultaneously and stored at −80° C. until use. […]
(§2) Frozen specimens were thawed in a 37° C. water bath with continuous agitation. […] These cells (frozen/thawed PBMC) were then assessed for viability by trypan blue dye exclusion, counted, and re-suspended in the medium for assay. […]
(§3) At time intervals of 24, 48, 72 and 96 hrs, cell surface phenotyping was performed by flow cytometry. […] Acquisition and Analysis was carried out on fluorescence activated cell sorting (FACS) BD FACS Canto II using FACSDiva v 6.1.2. […] Percentage of cells positive for CD10CD19, CD34CD19 and CD34CD117 were recorded.

[2] = tested on: mononuclear leukocytes of long-term survivors of acute lymphoblastic leukemia (ALL); test: cell surface phenotyping by flow cytometry, cells of ALL patients; format: cell-based, human; details: cells of leukemic patients in remission/long-term ALL survivors; compared to media only; days 1-4
Procedure: as §1, §2, §3

## Aflotoxin B1 [aflotoxin (AT)]
[1]
  development of cell surface phenotypes characteristic of ALL (CD10/CD19, CD34/CD19, CD34/CD117): indiscriminately induced increased development
[2]
  development of cell surface phenotypes characteristic of ALL (CD10/CD19, CD34/CD19, CD34/CD117): indiscriminately induced increased development
